Test results from paper PMC7259600, “The crystal structures of Thermus thermophilus CMP kinase complexed with a phosphoryl group acceptor and donor” (PLoS ONE, 2020).

Key:
[1] = target: T1, ttCMPK (CMP kinase of Thermus thermophilus HB8) (Thermus thermophilus, UniProt Q5SL35); test: X-ray crystal structure of the ternary complex (crystal soaked with CMP, ATP and GdCl3); format: binding; details: with CDP and Gd3+; 1.6 A, closed form; phosphoryl donor site
T1 construct: gene cmk; full-length, expressed from pET-11a (NdeI/BamHI) in E. coli BL21(DE3), no tag mentioned; SeMet-labelled protein for the CMP open form; residue numbers up to 209
T1 sequence (Q5SL35 1-208): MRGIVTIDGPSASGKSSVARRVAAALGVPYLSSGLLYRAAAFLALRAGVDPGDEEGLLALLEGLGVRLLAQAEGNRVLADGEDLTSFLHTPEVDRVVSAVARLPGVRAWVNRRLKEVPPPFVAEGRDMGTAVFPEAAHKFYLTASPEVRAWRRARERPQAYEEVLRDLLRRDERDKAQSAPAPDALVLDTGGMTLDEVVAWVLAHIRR

[2] = target: T1, ttCMPK (CMP kinase of Thermus thermophilus HB8); test: X-ray crystal structure of the complex (co-crystallisation); format: binding; details: closed form 1.5 A (3AKE; AMP-PCP and MgCl2 in drop, no AMP-PCP density); open form 2.2 A (3W8N; SeMet protein, MgCl2); phosphoryl acceptor site

Row | Structure (SMILES) | X-ray crystal structure of the ternary complex (crystal soaked with CMP, ATP and) [1] | X-ray crystal structure of the complex (co-crystallisation) [2]
1 | Nc1ncnc2c1ncn2[C@@H]1O[C@H](COP(=O)(O)OP(=O)(O)O)[C@@H](O)[C@H]1O [ADP] | ADP is recognized by several residues from both the CORE and LID domains | –
2 | Nc1ccn([C@@H]2O[C@H](COP(=O)(O)O)[C@@H](O)[C@H]2O)c(=O)n1 [CMP] | – | 3W8N (CMP "open" complex), 3AKE (CMP "closed" complex)
